The target of data set [1] is T1, EcDsbA (Escherichia coli, UniProt P0AEG4).
T1 construct: made in house; protein recovered from the periplasm of the expressing cells
Put plainly: waterLOGSY ligand-detected NMR binding. As to conditions: compound 500 µM, unlabelled EcDsbA 10 µM, 298 K. An excerpt:
(§1) To validate the binding of benzofuran analogues, three ligand-detected NMR methods, saturation-transfer difference (STD), Carr–Purcell–Meiboom–Gill (CPMG), and water–ligand observed via gradient spectroscopy (waterLOGSY), were employed to detect protein-ligand binding between the benzofurans and EcDsbA (Figure 2C). These experiments were designed as a primary screening tool to select analogues to undergo further affinity evaluation and prioritise compounds for crystal soaking. […] In a good agreement with this finding, eight out of nine benzofurans that passed all three ligand-detected experiments have their co-crystal structures successfully solved; in contrast, five compounds that failed two ligand-detected experiments only have one co-structure solved (Table 2).
(§2) For ligand-detected NMR spectroscopy, two samples (compound alone and compound + protein) were prepared for each compound. Unlabelled EcDsbA was prepared at 10 µM in a buffer of 50 mM sodium phosphate, pH 6.8, 25 mM NaCl, 100 µM 4,4-dimethyl 4-silapentane-1-sulfonic acid (DSS), and 10% ^2H2O. Compound was added to the protein sample to achieve final concentration of 500 µM (2% ^2H6-DMSO). ^1H 1D spectrum was acquired for each compound at 500 µM as a reference spectrum. All ligand-detected NMR experiments (STD, CPMG, and waterLOGSY) were acquired at 298 K on a Bruker Avance III 600 MHz NMR spectrometer equipped with a 5 mm TXI CryoProbe (Bruker, Billerica, MA, USA). STD spectra were acquired with 3 s of saturation at 1 ppm (on-resonance) and 33.3 ppm (off-resonance). WaterLOGSY spectra were acquired for compound alone and compound + protein with a 0.52 s acquisition time, 3 s relaxation delay, and 3 s Nuclear Overhauser effect (NOE) mixing time. CPMG spectra for compound alone and compound + protein were acquired with a constant spin echo delay of 1 ms and spin-lock period of 350 ms. The data was analysed using Topspin3.5 (Bruker) and DSS was used to reference the spectra.

For data set [2], the target named is T1, EcDsbA. Description: CPMG ligand-detected NMR binding. As to conditions: compound 500 µM, unlabelled EcDsbA 10 µM, 298 K, spin-lock 350 ms.
From the text: as §1, §2

In data set [3] the target is T1, EcDsbA. Put plainly: STD ligand-detected NMR binding. The following applies: compound 500 µM, unlabelled EcDsbA 10 µM, 298 K.
From the text: as §1, §2

For data set [4], the target named is T1, EcDsbA. Description: Compound soaking into EcDsbA crystals and X-ray diffraction. The format is binding. As to conditions: crystals soaked with compound at 10 mM (5% DMSO) for 3–6 h. An excerpt: The synthesised analogues were soaked into crystals of EcDsbA and X-ray diffraction data was collected for each analogue in order to determine their site of binding. […] The carboxy moiety of 15 was oriented towards the left-hand side of the binding groove, where more polar residues are located. The phenyl ring of the aniline moiety occupied the hydrophobic end of the binding pocket with the nitrogen atom of the amine linker positioned in close proximity to Gln35. […] Although anisidine 16 was occupying a larger region of the EcDsbA binding groove, the shift appeared to have interrupted the π-stacking interactions the benzofuran was making with the His32 side chain previously (Figure 1B and Figure S1).
EcDsbA was crystallised as previously described. Briefly, 1 µL of 30 mg/mL EcDsbA was mixed with an equal volume of crystallisation buffer (11–13% PEG8000, 5–7.5% glycerol, 1 mM CuCl2, 100 mM, sodium cacodylate pH 6.1) and equilibrated against 500 µL of reservoir buffer at 20 °C using hanging drop vapour diffusion. For compound soaking, crystals were transferred into 2 µL drops of 24% PEG8000, 22% glycerol, and 100 mM sodium cacodylate (pH 6.1) containing a compound of interest at the final concentration of 10 mM (5% DMSO) and were incubated for 3–6 h. Crystals were mounted on loops and flash-cooled in liquid nitrogen.
Datasets were collected at the Australian synchrotron on MX1 and MX2 beamlines using the Blue-Ice software (Irvine, CA, USA). MX1 beamline was equipped with an ADSC Quantum 210r detector and MX2 with an ADSC Quantum 315r detector. All datasets were indexed and integrated with iMOSFLM [32] or XDS [33]—and scaled using AIMLESS [34, 35] or SCALA [36]. Phasing was performed by molecular replacement with Phaser using the previously solved structure of EcDsbA as a search model (PDB code 1FVK). The final structure was obtained after several rounds of manual model building using Coot and refinement in phenix.refine. Structures, factors and coordinates have been deposited in the Protein Data Bank (PDB; http://www.pdb.org) under the accession codes of 6PMF, 6POQ, 6POH, 6PML, 6PVY, 6POI, and 6PVZ.

Data set [5] can be described thus: Solubility noted in the HSQC titration. The following applies: HSQC titration buffer. The data set is classed as physicochemical. The source says: The ligand efficiency (LE) ranged from 0.15 to 0.24 kcal mol^−1 HAC^−1. […] Biophysical characterisation of 25 is illustrated in Figure 2. […] Alkyl substituents at C-6 flipped the compound orientation within the hydrophobic groove and disrupt the polar interaction between the imidazole side chain of His32 and carboxyl group of the compound present in the 25 co-structure (Figure 1C). […] It was evident in the co-crystal structure of p-anisidine 16 that the p-methoxy group had caused the benzofuran scaffold to shift further along the hydrophobic groove, possibly disrupting the π-stacking interaction with His32 and polar interactions with Gln164 (Figure 1B).

The target in the next data set is T2, 15N-labelled EcDsbA (Escherichia coli, UniProt P0AEG4).
T2 construct: made in house; protein recovered from the periplasm of the expressing cells
T2 sequence (P0AEG4 20-208): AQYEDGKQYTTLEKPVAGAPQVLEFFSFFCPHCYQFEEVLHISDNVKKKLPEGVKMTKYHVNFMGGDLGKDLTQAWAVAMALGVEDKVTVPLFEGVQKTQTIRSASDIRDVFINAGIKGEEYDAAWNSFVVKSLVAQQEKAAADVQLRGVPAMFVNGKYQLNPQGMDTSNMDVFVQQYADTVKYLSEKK
Description: 2D 1H-15N HSQC chemical shift perturbation / titration. The data set is classed as binding. The following applies: for Ligand Efficiency: LE = −RTln(KD)/HAC, 298 K. On the procedure:
Compounds that passed at least one ligand-detected NMR experiment were further validated by 2D ^1H-^15N heteronuclear single quantum coherence (HSQC) spectroscopy. In HSQC experiments, chemical shift perturbations (CSP) of backbone amide resonances of ^15N-labelled EcDsbA were measured upon addition of compound at 1 mM. […] In accordance with the crystal structure, the majority of the residues perturbed by 1 mM of benzofuran analogues in single-point HSQCs are located around the hydrophobic groove which is an important binding site for DsbA substrates (Figure 2A). […] Eight compounds produced large enough CSP (>0.04 ppm) to enable HSQC titration and KD determination.
For the 2D ^1H-^15N-HSQC titration experiment, 100 µM of ^15N-labelled EcDsbA in a buffer of 50 mM HEPES, pH 6.8, 50 mM NaCl, 2% ^2H6-DMSO, and 10% ^2H2O, was titrated with increasing concentrations of compounds ([…], 0.125, 0.25, 0.5, and 1 mM). Data were acquired on a Bruker 600 MHz spectrometer equipped with a 5 mm TXI CryoProbe and a Bruker 700 MHz spectrometer equipped with a 5 mm TXI CryoProbe. Data was processed by Topspin3.5 (Bruker) and analysed by Sparky (T. D. Goddard and D. G. Kneller, SPARKY 3, University of California, San Francisco (UCSF)). Weighted chemical shift perturbations (CSP) that were observed upon addition of compounds to EcDsbA were calculated using an Equation (1) in [41]: (1) CSP=ΔδH^2+(0.2×ΔδN)^2 where ΔδH and ΔδN denote the change in chemical shift of amide proton and nitrogen resonances upon addition of the compound. Equilibrium dissociation constants (KD) were determined by fitting the plot of CSP against compound concentrations using one site with ligand depletion model (Equation (2)): (2) CSP=CSPmax×[(KD+Pt+Lt)−((KD+Pt+Lt)^2−4×Pt×Lt)]/2×Pt where CSP is the measured CSP at a given concentration, CSPmax is the CSP observed at the saturating concentration of compound, and Pt and Lt are the total protein and compound concentrations. The ligand efficiency (LE) is calculated using the Equation (3) in [42]: (3) LE=−ΔG/HAC=−RTln(KD)/HAC where R is gas constant (1.9858775 cal K^−1 mol^−1), T is temperature (298 K), KD is equilibrium dissociation constant, and HAC is the number of heavy (non-hydrogen) atoms.

T1 sequence (P0AEG4 20-208): as above

Turning to `O=C(O)Cc1coc2cc(Nc3ccccc3)ccc12` [compound 15, 2-(6-(Phenylamino)benzofuran-3-yl)acetic acid], the melting point (commonly the temperature of the solid-liquid transition) is 127 to 130 °C. At EcDsbA [1], the wLOGSY entry is “Pass”. Moreover, on EcDsbA [2], the CPMG result is “Pass”. In addition, on EcDsbA [3], the STD entry is reported as “Pass”. For the same compound, the “Crystal Structure in EcDsbA” value at EcDsbA [4] is given as “Yes”. In data set [5], the solubility entry was “poor solubility”.

For the compound `O=C(O)Cc1coc2cc(Cc3ccccc3)ccc12` [compound 28, 2-(6-Benzylbenzofuran-3-yl)acetic acid], the melting point lay within 124 to 127 °C. For the same compound, the wLOGSY result on EcDsbA [1] is recorded as “Pass”. In addition, the CPMG result on EcDsbA [2] is “Pass”. Besides, the STD entry on EcDsbA [3] is recorded as “Pass”. Besides, at 15N-labelled EcDsbA, the Kd (usually the constant that tells how readily two partners part at equilibrium) amounted to 341 ± 47 µM and the “Ligand Efficiency” value came out at 0.24 kcal mol^−1 HAC^−1. Also, at EcDsbA [4], the “Crystal Structure in EcDsbA” value was “Yes”.

Compound `COc1ccc(CC(=O)NC(C(=O)O)c2coc3cc(Br)ccc23)cc1` (centres unmarked) [compound 48, 2-(6-Bromobenzofuran-3-yl)-2-(2-(4-methoxyphenyl)acetamido)acetic acid] returned a melting point of 159 to 161 °C. In addition, at EcDsbA [1], the wLOGSY entry is listed as “Pass”. Further, the CPMG result on EcDsbA [2] is recorded as “Fail”. Further, on EcDsbA [3], the STD entry is “Fail”. In addition, at 15N-labelled EcDsbA, the dissociation constant Kd came out at 1350 ± 420 µM and the “Ligand Efficiency” value turned out to be 0.15 kcal mol^−1 HAC^−1. Moreover, the “Crystal Structure in EcDsbA” value at EcDsbA [4] was “No”.

`O=C(Cc1ccccc1F)NC(C(=O)O)c1coc2cc(Br)ccc12` (centres unmarked) [compound 49, 2-(6-Bromobenzofuran-3-yl)-2-(2-(2-fluorophenyl)acetamido)acetic acid] gave a melting point of 209 to 211 °C. In addition, the wLOGSY entry on EcDsbA [1] is “Pass”. For the same compound, the CPMG entry at EcDsbA [2] was “Fail”. For the same compound, the STD entry on EcDsbA [3] is listed as “Fail”. Also, on 15N-labelled EcDsbA, the Kd was above 1000 µM. Also, at EcDsbA [4], the “Crystal Structure in EcDsbA” value is “No”.

The values above are taken from paper PMC6832960, “The Fragment-Based Development of a Benzofuran Hit as a New Class of Escherichia coli DsbA Inhibitors” (Molecules, 2019).
